ChEMBL document CHEMBL2396537, “Orally active opioid compounds from a non-poppy source” (J Med Chem, 2013)
Activity calls are given as the source filed them. The rule behind the calls is not given here.

What was measured:
Cavia porcellus [1] = species on record: Cavia porcellus; assay: Agonist activity at opioid receptor in guinea pig ileum assessed as inhibition of electrically-induced twitch at 100 pM to 30 uM relative to morphine; format: tissue-based
[2] = target: Kappa-type opioid receptor (Homo sapiens, UniProt P41145); assay: Binding affinity to kappa opioid receptor (unknown origin)
Chain of Kappa-type opioid receptor (Homo sapiens, UniProt P41145) (P41145 whole entry): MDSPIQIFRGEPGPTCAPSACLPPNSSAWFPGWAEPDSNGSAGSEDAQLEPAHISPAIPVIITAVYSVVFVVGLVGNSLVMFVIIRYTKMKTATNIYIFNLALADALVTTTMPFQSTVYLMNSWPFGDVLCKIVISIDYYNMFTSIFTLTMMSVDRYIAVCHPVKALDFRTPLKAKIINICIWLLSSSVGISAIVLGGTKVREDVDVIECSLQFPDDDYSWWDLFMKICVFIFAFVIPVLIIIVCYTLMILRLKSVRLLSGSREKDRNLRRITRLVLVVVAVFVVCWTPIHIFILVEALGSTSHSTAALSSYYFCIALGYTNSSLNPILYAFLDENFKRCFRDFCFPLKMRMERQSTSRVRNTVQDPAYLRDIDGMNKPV

Mu-type opioid receptor [3] = target: Mu-type opioid receptor (Homo sapiens, UniProt P35372); assay: Binding affinity to mu opioid receptor (unknown origin)
Chain of Mu-type opioid receptor (Homo sapiens, UniProt P35372) (P35372 whole entry): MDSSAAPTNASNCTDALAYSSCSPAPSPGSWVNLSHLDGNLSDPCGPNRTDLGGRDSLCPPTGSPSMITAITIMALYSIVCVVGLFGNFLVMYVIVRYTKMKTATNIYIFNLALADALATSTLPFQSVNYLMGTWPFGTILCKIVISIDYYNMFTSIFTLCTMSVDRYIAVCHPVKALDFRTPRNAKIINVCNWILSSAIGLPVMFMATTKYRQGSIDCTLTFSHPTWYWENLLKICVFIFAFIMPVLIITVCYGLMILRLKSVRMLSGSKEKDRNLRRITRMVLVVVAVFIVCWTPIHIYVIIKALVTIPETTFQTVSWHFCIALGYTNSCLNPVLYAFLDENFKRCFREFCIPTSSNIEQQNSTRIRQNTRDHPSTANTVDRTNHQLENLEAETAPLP

Rattus norvegicus = assay: Inhibition of gastrointestinal transit of charcoal meal in rat at 55.2 mg/kg, po; format: organism-based; set-up: dose 55.2 mg/kg, route oral; settings: in vivo
[4] = Binding affinity to delta opioid receptor (unknown origin)
[5] = target: T1, Kappa-type opioid receptor (Cavia porcellus, UniProt P41144); assay: Displacement of [3H]U-69593 from kappa opoid receptor in Dunkin-Hartley guinea pig brain after 1 hr by liquid scintillation spectrometry
T1 sequence (P41144 whole entry): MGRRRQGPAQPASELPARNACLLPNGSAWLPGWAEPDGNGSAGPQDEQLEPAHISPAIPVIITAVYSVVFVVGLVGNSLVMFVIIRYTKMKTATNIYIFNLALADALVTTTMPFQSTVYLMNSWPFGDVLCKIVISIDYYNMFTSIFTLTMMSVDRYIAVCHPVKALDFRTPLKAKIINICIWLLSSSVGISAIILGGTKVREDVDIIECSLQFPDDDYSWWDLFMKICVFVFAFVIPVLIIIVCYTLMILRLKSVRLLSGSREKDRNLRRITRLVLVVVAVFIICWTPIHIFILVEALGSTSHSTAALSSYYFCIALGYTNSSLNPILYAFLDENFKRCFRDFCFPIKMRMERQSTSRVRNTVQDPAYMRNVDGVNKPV

Cavia porcellus [6] = species on record: Cavia porcellus; assay: Selectivity ratio of Ki for mu opioid receptor in Dunkin-Hartley guinea pig brain over Ki for delta opioid receptor in Dunkin-Hartley guinea pig brain
Mus musculus [7] = assay: Antinociceptive activity in mouse at 92 mg/kg, po by hot plate test; format: functional
[8] = Displacement of [3H]DPDPE from delta opoid receptor in Dunkin-Hartley guinea pig brain after 2 hrs by liquid scintillation spectrometry; set-up: species or system Cavia porcellus
Mus musculus [9] = assay: Antinociceptive activity in ddY mouse assessed as tolerance level at 10 mg/kg, sc bid measured on day 5 by tail-flick test; format: functional
Mu-type opioid receptor [10] = target: T2, Mu-type opioid receptor (Cavia porcellus, UniProt P97266); assay: Displacement of [3H]DAMGO from guinea pig brain mu opoid receptor after 3 hrs by liquid scintillation counting analysis
T2 sequence (P97266 whole entry): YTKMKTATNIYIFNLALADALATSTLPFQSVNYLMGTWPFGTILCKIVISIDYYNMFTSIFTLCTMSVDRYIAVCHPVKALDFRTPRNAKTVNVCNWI

[11] = target: T1, Kappa-type opioid receptor; assay: Displacement of [3H]U-69,593 from guinea pig brain kappa opoid receptor after 1 hr by liquid scintillation counting analysis
[12] = Displacement of [3H]DPDPE from guinea pig brain delta opoid receptor after 4 hrs by liquid scintillation counting analysis; set-up: species or system Cavia porcellus
Mu-type opioid receptor [13] = target: T2, Mu-type opioid receptor; assay: Displacement of [3H]DAMGO from mu opoid receptor in Dunkin-Hartley guinea pig brain after 1.5 hrs by liquid scintillation spectrometry

## CCO[C@]12CCN3C[C@@H](CC)[C@@H](/C(=C\OC)C(=O)OC)C[C@H]3C1=Nc1cccc(OC)c12
Cavia porcellus [1]
  Efficacy: 26%
  inhibition: 1%

## CC[C@@H]1CN2CC[C@@]3(OC)C(=Nc4cccc(OC)c43)[C@@H]2C[C@@H]1/C(=C\OC)C(=O)OC
Cavia porcellus [1]
  Efficacy: 70%
  inhibition: 19%

## CC[C@@H]1CN2CC[C@@]34OCCO[C@@]3(Nc3ccc(F)c(OC)c34)[C@@H]2C[C@@H]1/C(=C\OC)C(=O)OC
[2]
  Ki: 7 nM
Mu-type opioid receptor [3]
  Ki: 7 nM

## COc1ccc2c3c1O[C@H]1[C@@H](O)C=C[C@H]4[C@@H](C2)N(C)CC[C@@]341 [CODEINE]
Rattus norvegicus
  inhibition (INH): 70%

## CC[C@@H]1CN2CCc3c([nH]c4cccc(OC(C)=O)c34)[C@@H]2C[C@@H]1/C(=C\OC)C(=O)OC
Cavia porcellus [1]
  Efficacy: 38%
  inhibition: 2%

## CC[C@@H]1CN2CC[C@]3(Nc4cccc(OC)c4C3=O)[C@@H]2C[C@@H]1/C(=C\OC)C(=O)OC
[2]
  Ki: 79 nM
Mu-type opioid receptor [3]
  Ki: 0.01 nM
[4]
  Ki: 3 nM

## CC[C@@H]1CN2CCc3c([nH]c4cccc(O)c34)[C@@H]2C[C@@H]1/C(=C\OC)C(=O)OC
Cavia porcellus [1]
  Efficacy: 57%
  inhibition: 41%

## CC[C@@H]1CN2CCc3c([nH]c4cccc(OC)c34)[C@@H]2C[C@@H]1/C(=C\OC)C(=O)OC
[5]
  Ki: > 1000 nM
Cavia porcellus [6]
  Ratio Ki: 10
Mus musculus [7]
  Activity: 100%
Rattus norvegicus
  inhibition (INH): 18%
Cavia porcellus [1]
  Efficacy: 95%
  inhibition: 26%
[8]
  Ki: 60 nM

## CN1CC[C@]23c4c5ccc(O)c4O[C@H]2[C@@H](O)C=C[C@H]3[C@H]1C5 [MORPHINE]
Mus musculus [9]; route subcutaneous
  Activity: 100%
Rattus norvegicus
  inhibition (INH): 70%

## CC[C@@H]1CN2CC[C@@]3(O)C(=Nc4cccc(OC)c43)[C@@H]2C[C@@H]1/C(=C\OC)C(=O)OC
Mu-type opioid receptor [10]
  Ki: 9.8 nM
Cavia porcellus [6]
  Ratio Ki: > 10
Mus musculus [9]
  Activity: Active
[11]
  Ki: 195 nM
[12]
  Ki: 145 nM
Mu-type opioid receptor [13]
  Ki: 13 nM
Cavia porcellus [1]
  Efficacy: 99%
[8]
  Ki: 155 nM

## CC[C@@H]1CN2CC[C@@]3(OC(C)=O)C(=Nc4cccc(OC)c43)[C@@H]2C[C@@H]1/C(=C\OC)C(=O)OC
Cavia porcellus [1]
  Efficacy: 15%
  inhibition: 21%
